One data set relates to CML LSCs. As to the kind of experiment: In vivo treatment of CML mice (SCLtTA/BCR-ABL BM cells transplanted into congenic B6 mice). Set-up: species or system mouse. The following applies: CML mice, 3 weeks of treatment, followed 60 days after treatment discontinuation. The procedure:
Next, we transplanted BM cells from SCLtTA/BCR-ABL mice (CD45.2) into congenic B6 mice (CD45.1). Following confirmation of CML development at 4 weeks after transplantation, mice were treated as above with scrRNA, inhibitor, scrRNA+NIL, or inhibitor+NIL for 3 weeks.

In another data set the test system is human CML HSCs. As to the kind of experiment: NIL treatment of human CML HSCs: miR-126, PIK3R2, SPRED1 expression and cell cycle. It counts as cell-based. As to the method:
After transduction performed as above, GFP+ cells selected at 48 h were exposed to NIL (2 μM and 5 μM, Novartis) for another 72 h, and analyzed using assays for cell growth, apoptosis, cell cycle, CFC and CFC replating. Human HSCs and mouse LT-HSCs were also treated with CpG-miR-126 inhibitor or CpG-scrRNA (500 nM), with or without NIL (5 μM), for 72 h and analyzed for cell growth, apoptosis, cell cycle and CFC. Human CML HSCs co-cultured with control or miR-126 KD HUVECs and mouse CML LT-HSCs co-cultured with control or miR-126 KD ECs for 96 h, with or without NIL (5 μM), were also analyzed for cell growth, apoptosis, cell cycle and CFC. Cell growth was measured by Lumino Glo (Promega). Apoptosis was measured by labeling cells with Annexin V-PE or FITC or APC and 4, 6-diamidino-2-phenylindole (DAPI) (all from BD-PharMingen, San Diego, Calif.) and analyzed by flow cytometry. Cell cycle was analyzed by Ki-67-Alexa Fluor 647 (B56, BD) and DAPI labeling based on the manufacturer's protocol. Cells were also exposed to EdU (C10640, Invitrogen) for 2 h and EdU staining was analyzed according to the manufacturer's protocol. Cell proliferation was also measured by CFSE staining (Molecular probes) based on the manufacturer's protocol. For CFC, Lin-CD34+CD38− cells cultured with or without NIL (5 μM) were plated in methylcellulose progenitor culture, and burst-forming unit-erythroid and colony-forming unit-granulocyte and macrophage cells were counted after 14 days. […]
To measure the miRNA and mRNA expression, total RNA was extracted using the miRNeasy Mini Kit (Qiagen, Valencia, Calif.). […] BCR-ABL expression in human and mouse samples were measured with primer and probe sequences for BCR-ABL (B3A2 or B2A2), as previously described^46. […]
K562, HUVEC, normal and CML CD34+CD38− cells were cultured and incubated with miR126 SmartFlare RNA probe (EMD Millipore) for 16 h. […] Nuclei were counterstained with DAPI and the images were analyzed using a confocal microscope (Carl Zeiss).

The test system of a further data set is CML CD34+ cells. As to the kind of experiment: MAPK/ERK, BCL-2 and apoptosis in NIL-treated CML CD34+ cells. It counts as cell-based, human. As to the method: After transduction performed as above, GFP+ cells selected at 48 h were exposed to NIL (2 μM and 5 μM, Novartis) for another 72 h, and analyzed using assays for cell growth, apoptosis, cell cycle, CFC and CFC replating. […] Cell growth was measured by Lumino Glo (Promega). Apoptosis was measured by labeling cells with Annexin V-PE or FITC or APC and 4, 6-diamidino-2-phenylindole (DAPI) (all from BD-PharMingen, San Diego, Calif.) and analyzed by flow cytometry. […] Cells were also exposed to EdU (C10640, Invitrogen) for 2 h and EdU staining was analyzed according to the manufacturer's protocol. Cell proliferation was also measured by CFSE staining (Molecular probes) based on the manufacturer's protocol. For CFC, Lin-CD34+CD38− cells cultured with or without NIL (5 μM) were plated in methylcellulose progenitor culture, and burst-forming unit-erythroid and colony-forming unit-granulocyte and macrophage cells were counted after 14 days. Colony replating assays were performed by collecting and pooling colonies from primary CFC assays and plating 10,000 cells in secondary CFC assays.
(§1) Proteins were resolved on 10% sodium dodecyl sulfate-polyacrylamide gel electrophoresis (SDS-PAGE) gels and transferred to nitrocellulose membrane. Membranes were sequentially reprobed with primary and secondary antibodies. […] Horseradish peroxidase-conjugated secondary antibodies were from Jackson ImmunoResearch Laboratories (Westgrove, Pa.). Antibody detection was performed using the Superfemto kit (Pierce Biotechnology, Rockford, Ill.). Protein levels were determined by densitometry using Image-Quant software (Amersham Pharmacia Biotech, Piscataway, N.J.).

Data set [1] relates to BCR-ABL+ primary CD34+ and/or K562 cells. It counts as cell-based, human. As to the method:
Nuclei were counterstained with DAPI.
as §1

Another data set concerns CML LT-HSCs. Put plainly: NIL treatment of miR-126flox/wt/Tie2+ or Tie2− mice transplanted with CML LT-HSCs. It counts as in vivo, mouse. The note with it: NIL 50 mg/kg daily oral gavage for 3 weeks. The procedure: Next, we sorted CML LT-HSCs from induced CD45.1/CD45.2 SCLtTA/BCR-ABL mice and transplanted them into CD45.2 miR-126^flox/wt/Tie2+ (heterozygous miR-126 KO allele in ECs) or Tie2− (WT miR-126 allele in ECs) mice. After confirming CML development, we treated the mice with NIL (50 mg/kg, daily by oral gavage) or vehicle for 3 weeks.
Animal studies. Inducible transgenic SCLtTA/BCR-ABL mice in the FVB/N background^37,38 were backcrossed to the B6 background (CD45.2) for 10 generations. Transgenic BCR-ABL mice were maintained on tetracycline water at 0.5 g/L. Withdrawal of tetracycline results in expression of BCR-ABL and generation of a CML-like disease in these mice^37,38. Unless otherwise indicated, BCR-ABL expression was induced for 2-3 weeks by tetracycline withdrawal in 6-8 weeks old male and female mice and then BM cells (from both tibias and femurs) were collected for experiments. SCLtTA/BCR-ABL mice (CD45.2, B6) were also bred with CD45.1 B6 mice to produce CD45.1/CD45.2 SCLtTA/BCR-ABL mice as donors. miR-126^flox/flox mice (B6, from Dr. Kuo, Stanford) were crossed with Mx1-cre, Tie2-cre (both from The Jackson Laboratory) and SCLtTA/BCR-ABL mice (all B6) to obtain the following strains: miR-126^flox/flox/Mx1-cre, SCLtTA/BCR-ABL/miR-126^flox/flox/Mx1-cre, miR-126^flox/wt/Tie2-cre and miR-126^flox/flox/Tie2-cre. […]

Another data set concerns human BCR-ABL+K562 cells. Put plainly: NIL treatment of K562 cells: miR-126 staining. Type of data set: cell-based. The note with it: K562 cells with and without 5 μM NIL. As to the method:
K562, HUVEC, normal and CML CD34+CD38− cells were cultured and incubated with miR126 SmartFlare RNA probe (EMD Millipore) for 16 h. […] Cells were then washed in 1× phosphate buffered saline (PBS) and fixed in 4% paraformaldehyde for 3 min. Nuclei were counterstained with DAPI and the images were analyzed using a confocal microscope (Carl Zeiss).

The mark [2] stands for this setting: CML CD34+ cells, NIL treatment, western blot.

For “5′ G*G*T GCA TCG ATG CAGG*G*G* G*G xxxxx mGmUmA mGmAmA mCmCmG mUmAmC mUmCmG mUmCmA mCmUmU mA 3′ (GGTGCATCGATGCAGGGGGGGUAGAACCGUACUCGUCACUUA; phosphorothioate, 2'-O-methyl, linker; (1)..(2) phosphorothioation; (2)..(3) phosphorothioation; (16)..(17) phosphorothioation; (17)..(18) phosphorothioation; (18)..(19) phosphorothioation; (19)..(20) phosphorothioation; (20)..(21) ((CH2)3)5; (20)..(21) Five C3 carbon chain linkers, ((CH2)3)5; modified_base (21)..(21) gm; modified_base (22)..(22) um; modified_base (23)..(23) 2′-O-Methyladenosine; modified_base (24)..(24) gm; modified_b) [scrRNA, CpG ODN linked to scrambled RNA, control oligonucleotide]”, the mice that survived entry in the data set on CML LSCs was “all of the mice treated with scrRNA alone died of leukemia”.
In the case of `Cc1cn(-c2cc(NC(=O)c3ccc(C)c(Nc4nccc(-c5cccnc5)n4)c3)cc(C(F)(F)F)c2)cn1` [NIL, nilotinib], in the data set with human CML HSCs (human CML HSCs, 5 μM NIL vs DMSO, cell cycle analysis), the “fraction of quiescent cells” value was “increased”. In addition, the SPRED1 levels entry in the data set on human CML HSCs (human CML Lin-CD34+CD38− cells treated with NIL, compared with vehicle alone, QPCR) was “decreased”. Besides, the miR-126 expression entry in the data set on human CML HSCs (human CML Lin-CD34+CD38− cells, NIL 2 μM or 5 μM, compared with vehicle alone, QPCR and miRNA staining) is “increased”. The cell survival entry in the data set on CML CD34+ cells (CML CD34+ cells, NIL treatment) was “promoted survival”. For the same compound, in the data set on CML CD34+ cells (setting [2]), the BCL-2 expression result is on record as “increased” and the MAPK/ERK activation entry is on record as “enhanced”. In data set [1], the SPRED1 phosphorylation entry is listed as “de-phosphorylation”; the “binding and co-localization of SPRED1 with RAN” value is listed as “decreased”; the “formation of RAN/Exp-5/RCC1 complex” value was “increased”; the “mature miR-126 levels” value is listed as “increased”. For the same compound, in data set [1], the “pri- and pre-miR-126 levels” value was “decreased”; the “ratio of pri- and pre-miR-126 to mature miR-126 levels” value was “decreased”. Besides, the “day of 50 percent survival” value with CML LT-HSCs (Tie2− mice (WT miR-126 in ECs) transplanted with CML LT-HSCs, untreated Tie2− approx. day 60) is roughly 150 days. Also, the “survival at day 150” value in the data set on CML LT-HSCs (miR-126flox/wt/Tie2+ mice (heterozygous miR-126 KO in ECs) transplanted with CML LT-HSCs) is recorded as “all NIL-treated Tie2+ mice were alive”. In addition, the miR-126 expression result with human BCR-ABL+K562 cells was “increased”.
For the compound `O=C(NOC[C@H](O)CO)c1ccc(F)c(F)c1Nc1ccc(I)cc1F` [PD0325901], in the data set on CML CD34+ cells (CML Lin-CD34+ cells, PD0325901 500 nM in combination with NIL, 72 h), the NIL-induced apoptosis entry is “enhanced”.

Source of the values: patent US11801266B2, “Methods of using anti-MIR126 compounds” (CITY OF HOPE, priority 2019, dated 2023).
